A short description of data set [1]: Human plasma protein binding (equilibrium dialysis). It is filed as in vitro ADME. The conditions noted are these: dialysis 18 hours. As to the method:
The automated equilibrium dialysis assay in human plasma uses the RED (Rapid Equilibrium Dialysis) Device and sample handling. The assay generally runs over two to three days including delivery of results. After dialysis for 18 hours, plasma and buffer samples are prepared for analysis by liquid chromatography and mass spectrometry. Samples are generally tested in singlicates and quantified by LC/MSMS by using a 7-point calibration curve in plasma. The compounds are pooled together in plasma pools up to 10 compounds. Three reference compounds are used in each run, Propranolol, Metoprolol and Warfarin. Warfarin is used as a control in each pool and Propranolol and Metoprolol are placed randomly in each run. An in-house Excel macro is used for preparation of files for the robot and the mass spectrometer and is also used for the calculations of fraction unbound (fu %) in plasma.
(In general: Equilibrium dialysis compares concentrations on both sides of a semipermeable membrane.)

Data set [2] is described as follows: Thermodynamic solubility (shake-flask). Particulars: aqueous phosphate buffer, 25 °C, pH 7.4, aqueous buffer, thermodynamic from solid, aqueous phosphate buffer pH 7.4, 24 hours. The data set is classed as physicochemical. As to the method: The thermodynamic solubility of a research compound is measured under standard conditions. It is a shake-flask approach that uses 10 mM DMSO solutions which are supplied from the Compound Managements liquid store and is a high throughput method. The dried compounds are equilibrated in an aqueous phosphate buffer (pH 7.4) for 24 hours at 25° C., the portion with the dissolved compound is then separated from the remains. The solutions are analyzed and quantified using UPLC/MS/MS, QC-samples are incorporated in each assay-run to ensure the quality of the assay.

Data set [3] concerns the target recombinant human Estrogen Receptor alpha ligand binding domain (ER alpha-LBD (GST)) (Homo sapiens (Human), UniProt P03372). Put plainly: ERα binding assay (LanthaScreen TR-FRET competition). The conditions noted are these: TR-FRET, displacement of Fluormone ES2. The protocol: The ability of compounds to bind to isolated Estrogen Receptor Alpha Ligand binding domain (ER alpha-LBD (GST)) was assessed in competition assays using a LanthaScreen™ Time-Resolved Fluorescence Resonance Energy Transfer (TR-FRET) detection end-point. […] The assay principle is that ER alpha-LBD (GST) is added to a fluorescent ligand to form a receptor/fluorophore complex. A terbium-labelled anti-GST antibody (Product code PV3551) is used to indirectly label the receptor by binding to its GST tag, and competitive binding is detected by a test compound's ability to displace the fluorescent ligand, resulting in a loss of TR-FRET signal between the Tb-anti-GST antibody and the tracer. The assay was performed as follows with all reagent additions carried out using the Beckman Coulter BioRAPTR FRD microfluidic workstation: • 1. Acoustic dispense 120 nL of the test compound into a black low volume 384 well assay plates. • 2. Prepare 1×ER alpha-LBD/Tb-antiGST Ab in ES2 screening buffer and incubate for 15 minutes. • 3. Dispense 6 μL of the 1×[…]/Tb-anti-GST Ab reagent into each well of the assay plate followed by 6 μL of Fluorophore reagent into each well of the assay plate • 4. Cover the assay plate to protect the reagents from light and evaporation, and incubate at room temperature for 4 hours. • 5.
TR-FRET dose response data obtained with each compound was exported into a suitable software package (such as Origin or Genedata) to perform curve fitting analysis. Competitive ER alpha binding was expressed as an IC50 value.
In general terms: In TR-FRET formats the signal depends on donor and acceptor labels being close together.

Data set [4] addresses Estrogen Receptor (ERα) in MCF-7 cells (Homo sapiens (Human), UniProt P03372). The data set can be described thus: MCF-7 ER down-regulation assay (immuno-fluorescence). It is filed as cell-based. The conditions noted are these: for DC50: read-out: ER down regulation IC50 value. The protocol: The Echo uses acoustic technology to perform direct microplate-to-microplate transfers of DMSO compound solutions to assay plates. […] Cells were fixed at room temperature for 20 mins before being washed two times with 250 μL PBS/Proclin (PBS with a Biocide preservative) using a BioTek platewasher, 40 μL of PBS/Proclin was then added to all wells and the plates stored at 4° C. The fixing method described above was carried out on the Integrated Echo 2 workcell. Immunostaining was performed using an automated AutoElisa workcell. […] The plates were incubated overnight at 4° C. […] The mean total intensity was normalized for cell number giving the total intensity per cell. The data was exported into a suitable software package (such as Origin) to perform curve fitting analysis.

The nature of data set [5]: log D (shake flask, 1-octanol/aqueous buffer). It is filed as physicochemical. An excerpt:
The lipophilicity of a drug is an important physical property which may influence many biological and metabolic properties of a compound, for example the absorption, distribution, metabolism, excretion and toxicity profiles of a compound. The distribution coefficient between 1-octanol and aqueous buffer, Log DO/W, at pH 7.4, is the most commonly used measurement of the lipophilicity of a compound. The current method for measurement of Log DO/W is based on the traditional shake flask technique, but with the modification of measuring compounds in mixtures of ten at a time using UPLC with quantitative mass spectrometry (MS) as a method to measure the relative octanol and aqueous concentrations. […] An additional QC sample Caffeine, with low Log D, are used and randomly placed in all runs. The method has been thoroughly validated against the previous shake flask methodologies.

The next data set deals with hERG potassium channel (Homo sapiens (Human), UniProt Q12809). The data set can be described thus: hERG binding assay (automated patch clamp, CHO cells). The conditions noted are these: CHO cell line, Nanion Syncropatch 384PE. The data set is classed as cell-based. As to the method: Reagent preparations include: • 1.
Sequence of hERG potassium channel (Q12809 whole entry): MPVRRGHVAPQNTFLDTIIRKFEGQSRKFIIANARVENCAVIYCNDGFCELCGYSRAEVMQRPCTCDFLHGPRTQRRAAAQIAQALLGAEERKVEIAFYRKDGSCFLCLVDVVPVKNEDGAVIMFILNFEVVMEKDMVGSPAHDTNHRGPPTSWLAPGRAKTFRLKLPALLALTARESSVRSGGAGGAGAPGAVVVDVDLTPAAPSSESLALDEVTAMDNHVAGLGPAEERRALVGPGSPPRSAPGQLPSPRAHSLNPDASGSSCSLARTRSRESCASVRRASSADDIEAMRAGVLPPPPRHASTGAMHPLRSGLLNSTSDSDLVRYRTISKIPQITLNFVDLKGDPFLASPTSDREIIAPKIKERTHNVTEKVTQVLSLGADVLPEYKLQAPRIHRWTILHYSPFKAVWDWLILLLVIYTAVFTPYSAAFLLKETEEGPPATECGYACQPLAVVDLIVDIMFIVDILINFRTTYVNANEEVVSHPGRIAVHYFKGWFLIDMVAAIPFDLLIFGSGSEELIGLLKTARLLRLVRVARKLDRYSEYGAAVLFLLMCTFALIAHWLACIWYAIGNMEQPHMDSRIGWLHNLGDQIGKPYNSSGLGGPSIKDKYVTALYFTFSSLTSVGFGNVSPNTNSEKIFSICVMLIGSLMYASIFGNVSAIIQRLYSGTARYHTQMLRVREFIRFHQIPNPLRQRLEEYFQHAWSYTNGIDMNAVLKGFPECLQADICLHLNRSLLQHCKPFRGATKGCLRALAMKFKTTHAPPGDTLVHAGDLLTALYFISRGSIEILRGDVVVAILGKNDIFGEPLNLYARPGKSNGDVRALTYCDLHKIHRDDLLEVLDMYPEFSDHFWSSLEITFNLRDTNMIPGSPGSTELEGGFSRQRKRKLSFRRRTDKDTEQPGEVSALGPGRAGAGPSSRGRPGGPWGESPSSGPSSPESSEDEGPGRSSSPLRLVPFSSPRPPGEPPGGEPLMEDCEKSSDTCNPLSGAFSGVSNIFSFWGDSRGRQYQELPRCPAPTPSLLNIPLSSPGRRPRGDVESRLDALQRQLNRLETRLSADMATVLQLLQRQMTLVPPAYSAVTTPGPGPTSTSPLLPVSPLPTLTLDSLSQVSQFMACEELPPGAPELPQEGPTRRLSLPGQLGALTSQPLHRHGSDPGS
Cell preparations: • 1. If using cell culture; cells to be incubated at 30° C. for approximately 4-6 days prior to being used. Day of assay lift cells using accutase and re-suspend in 20 ml cell buffer to a density of 0.8 to 1e6 cells/ml. • 2. If using assay ready cryovials; rapidly thaw two cryovials at 37° C. and slowly pipette into 23 ml external solution • 3.
All compounds were acoustically dispensed in quadruplicate using a Labcyte Echo. […] Fill 384 well medium resistance 4 hole chips with 40 μl external buffer and perfuse internal buffer to the underside of plate. • 2. Dispense 20 μl of cells into each well of the chip followed by 20 μl of seal enhancer. • 3. Remove 40 μl of reagent from each well to the wash station, leaving a residual volume of 40 μl • 4. Dispense 40 μl of reference buffer with a removal step of 40 μl after 3 min, repeat this step. • 5.
hERG-mediated currents were elicited using a voltage step protocol consisting of acontinuous holding voltage of −80 mV, with a 500 ms step to 60 mV followed by a 500 ms step to −40 mV every 15 seconds. hERG current magnitude was measured automatically from the leak-subtracted traces by the Nanion software by taking the peak of the hERG “tail” current at −40 mV every 15 seconds and taking the last three of these responses for each concentration to generate the concentration-effect curve.
Calculation of results is performed using APC package within Genedata. For the routine normalization of well data with Neutral and Inhibitor control well groups as reference, GeneData Assay Analyzer uses the following equation to normalize the signal values to the desired signal range:
[formula] • x is the measured raw signal value of a well • is the median of the measured signal values for the Central Reference (Neutral) wells on a plate • is the median of the measured signal values for the Scale Reference (Inhibitor) wells on a plate • CR is the desired median normalized value for the Central Reference (Neutral) • SR is the desired median normalized value for the Scale Reference (Inhibitor)
For orientation: The hERG channel carries a current that helps repolarise heart muscle cells.

Where [6] appears, read: 1-octanol/aqueous buffer, pH 7.4, pH 7.4, 1-octanol/aqueous buffer.

Values after ≈ are worked out from the molar mass of the structure shown.

Sequence of Estrogen Receptor (ERα) in MCF-7 cells (P03372 whole entry): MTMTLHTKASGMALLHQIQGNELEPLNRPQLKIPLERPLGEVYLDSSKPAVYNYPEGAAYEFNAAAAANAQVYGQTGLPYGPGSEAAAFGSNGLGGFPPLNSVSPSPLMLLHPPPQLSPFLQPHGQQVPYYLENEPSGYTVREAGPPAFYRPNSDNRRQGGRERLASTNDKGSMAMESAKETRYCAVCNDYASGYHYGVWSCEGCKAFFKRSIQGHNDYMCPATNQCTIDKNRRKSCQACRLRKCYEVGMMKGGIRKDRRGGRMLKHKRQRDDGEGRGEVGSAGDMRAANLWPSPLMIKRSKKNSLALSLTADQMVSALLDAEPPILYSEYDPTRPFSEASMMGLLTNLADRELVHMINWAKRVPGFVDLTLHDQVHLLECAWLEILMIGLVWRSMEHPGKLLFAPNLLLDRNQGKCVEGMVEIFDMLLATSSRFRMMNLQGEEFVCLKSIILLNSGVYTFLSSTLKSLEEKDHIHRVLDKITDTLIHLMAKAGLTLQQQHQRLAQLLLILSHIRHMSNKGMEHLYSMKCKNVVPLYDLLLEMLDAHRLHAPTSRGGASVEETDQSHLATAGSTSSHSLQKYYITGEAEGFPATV
Sequence of recombinant human Estrogen Receptor alpha ligand binding domain (ER alpha-LBD (GST)) (P03372 307-554): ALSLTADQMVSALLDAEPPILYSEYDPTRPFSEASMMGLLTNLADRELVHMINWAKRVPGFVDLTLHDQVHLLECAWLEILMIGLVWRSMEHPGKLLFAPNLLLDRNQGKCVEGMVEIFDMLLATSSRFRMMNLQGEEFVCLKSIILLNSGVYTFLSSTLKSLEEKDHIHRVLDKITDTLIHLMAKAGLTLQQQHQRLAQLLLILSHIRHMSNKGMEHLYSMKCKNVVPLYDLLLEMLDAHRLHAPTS

For the molecule `COc1cc(OC2CN(CCCF)C2)ccc1[C@@H]1c2ccc3[nH]ncc3c2C[C@@H](C)N1CC(F)F` [Example 22, (6S,8R)-7-(2,2-difluoroethyl)-6-(4-((1-(3-fluoropropyl)azetidin-3-yl)oxy)-2-methoxyphenyl)-8-methyl-6,7,8,9-tetrahydro-3H-pyrazolo[4,3-f]isoquinoline], the “Human plasma protein binding (% free)” value in data set [1] was 4.6 % free. Further, the solubility – broadly, the dissolved amount per volume that the medium holds – at 24 h in data set [2] amounted to 70 µM (≈ 34.2 µg/mL). Moreover, the IC50 (in general, the concentration that inhibits the measured activity by half) in data set [3] worked out at 5.7 nM; in data set [4], 0.062 nM. In addition, in data set [5] (setting [6]), the logD (in general, lipophilicity at a set pH, counting ionised and neutral species) is 4.

In the case of `C[C@@H]1Cc2c(ccc3[nH]ncc23)[C@@H](c2c(F)cc(NC3CN(CCCF)C3)cc2F)N1CC(C)(F)CO` (single isomer, unassigned) [Example 24], the IC50 in data set [3] worked out at 10 nM. Also, the DC50 in data set [4] is 0.21 nM.

`COc1cc(NC2CN(CCCF)C2)ccc1[C@@H]1c2ccc3[nH]ncc3c2C[C@@H](C)N1CC1(CF)COC1` [Example 10, N-(4-((6S,8R)-7-((3-(fluoromethyl)oxetan-3-yl)methyl)-8-methyl-6,7,8,9-tetrahydro-3H-pyrazolo[4,3-f]isoquinolin-6-yl)-3-methoxyphenyl)-1-(3-fluoropropyl)azetidin-3-amine]: the “Human plasma protein binding (% free)” value in data set [1] stood at 23 % free. Moreover, the solubility at 24 h in data set [2] amounted to 634 µM (≈ 333 µg/mL). Also, the IC50 in data set [3] turned out to be 8 nM; in data set [4], 0.26 nM. This molecule had a logD in data set [5] (setting [6]) of 2.8.

In turn, `C[C@@H]1Cc2c(ccc3[nH]ncc23)[C@@H](c2cnc(NC3CN(CCCF)C3)cn2)N1CC1(F)CC1` [Example 55, 5-((6S,8R)-7-((1-fluorocyclopropyl)methyl)-8-methyl-6,7,8,9-tetrahydro-3H-pyrazolo[4,3-f]isoquinolin-6-yl)-N-(1-(3-fluoropropyl)azetidin-3-yl)pyrazin-2-amine] showed a solubility at 24 h in data set [2] of 987 µM (≈ 461 µg/mL). Besides, the figures for the IC50 (on hERG potassium channel; in data set [3]; in data set [4]) were greater than 40000 nM, 8.2 nM and 1.1 nM, respectively. This molecule showed a logD in data set [5] (setting [6]) of 2.1.

As for `CCOc1cc(NC2CN(CCCF)C2)ccc1[C@@H]1c2ccc3[nH]ncc3c2C[C@@H](C)N1CC1(F)CC1` [Example 20, N-(3-ethoxy-4-((6S,8R)-7-((1-fluorocyclopropyl)methyl)-8-methyl-6,7,8,9-tetrahydro-3H-pyrazolo[4,3-f]isoquinolin-6-yl)phenyl)-1-(3-fluoropropyl)azetidin-3-amine], the “Human plasma protein binding (% free)” value in data set [1] came to 29 % free. The solubility at 24 h in data set [2] came to 730 µM (≈ 372 µg/mL). For the same molecule, the IC50 in data set [3] amounted to 15 nM; in data set [4], 0.36 nM. This molecule also showed a logD in data set [5] (setting [6]) of 2.8.

The molecule `C[C@@H]1Cc2c(ccc3[nH]ncc23)[C@@H](c2cnc(NC3CN(CCCF)C3)cn2)N1CC(F)F` [Example 50, 5-((6S,8R)-7-(2,2-difluoroethyl)-8-methyl-6,7,8,9-tetrahydro-3H-pyrazolo[4,3-f]isoquinolin-6-yl)-N-(1-(3-fluoropropyl)azetidin-3-yl)pyrazin-2-amine] gave a solubility at 24 h in data set [2] of 748 µM (≈ 344 µg/mL). The figures for the IC50 (on hERG potassium channel; in data set [3]; in data set [4]) were 13000 nM, 2.7 nM and 0.47 nM, respectively. This molecule also had a logD in data set [5] (setting [6]) of 2.1.

Regarding `C[C@@H]1Cc2c(ccc3[nH]ncc23)[C@@H](c2c(F)cc(NC3CN(CCCF)C3)cc2F)N1CC(C)(F)CO` (single isomer, unassigned) [Example 23], the “Human plasma protein binding (% free)” value in data set [1] was determined as 9.5 % free. The same molecule returned a solubility at 24 h in data set [2] of 339 µM (≈ 176 µg/mL). The IC50 in data set [3] was 15 nM. The DC50 in data set [4] was determined as 0.15 nM. For the same molecule, the logD in data set [5] (setting [6]) came to 3.1.

As to `C[C@@H]1Cc2c(ccc3[nH]ncc23)[C@@H](c2ccc(OC3CN(CCCF)C3)cn2)N1CC(F)(F)CO` [Example 58, 2,2-difluoro-3-((6S,8R)-6-(5-((1-(3-fluoropropyl)azetidin-3-yl)oxy)pyridin-2-yl)-8-methyl-3,6,8,9-tetrahydro-7H-pyrazolo[4,3-f]isoquinolin-7-yl)propan-1-ol], in data set [2], the solubility at 24 h was 633 µM (≈ 310 µg/mL). Further, the IC50 on hERG potassium channel was greater than 40000 nM; in data set [3], 2.1 nM; in data set [4], 0.56 nM. In data set [5] (setting [6]), the pH-dependent lipophilicity (logD) turned out to be 2.4.

Molecule `C[C@@H]1Cc2c(ccc3[nH]ncc23)[C@@H](c2ccc(N(C)C3CN(CCCF)C3)cn2)N1CC1(F)CC1` [Example 57, 6-((6S,8R)-7-((1-fluorocyclopropyl)methyl)-8-methyl-6,7,8,9-tetrahydro-3H-pyrazolo[4 3-f]isoquinolin-6-yl)-N-(1-(3-fluoropropyl)azetidin-3-yl)-N-methylpyridin-3-amine] yielded a solubility at 24 h in data set [2] of 615 µM (≈ 296 µg/mL). The IC50 at hERG potassium channel is 16000 nM; in data set [3] it was 5 nM; in data set [4], 0.36 nM. In data set [5] (setting [6]), this molecule returned a logD of 2.9.

Consider `C[C@@H]1Cc2c(ccc3[nH]ncc23)[C@@](C)(c2ccc(NC3CN(CCCF)C3)cn2)N1CC(F)F` [Example 44, 6-((6S,8R)-7-(2,2-difluoroethyl)-6,8-dimethyl-6,7,8,9-tetrahydro-3H-pyrazolo[4,3-f]isoquinolin-6-yl)-N-(1-(3-fluoropropyl)azetidin-3-yl)pyridin-3-amine], for which, in data set [1], the “Human plasma protein binding (% free)” value worked out at 10 % free. This molecule gave a solubility at 24 h in data set [2] of 998 µM (≈ 472 µg/mL). Also, the IC50 in data set [3] stood at 9.6 nM; in data set [4], 0.91 nM. In addition, in data set [5] (pH 7.4, 1-octanol/aqueous buffer), the logD is 3.2.
